Measured values taken from PubChem BioAssay (NCI).
Where “and” joins values, the source holds several entries; their conditions need not be identical. Equal values may be shown once.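 Where inhibition never reached the appropriate level, the endpoint shown equals the highest concentration tested. Otherwise, values were interpolated linearly from a five-concentration, 48-hour dose response in 96-well plates. Abbreviation: GI50, concentration required for 50% inhibition of growth. Definition used: TGI = concentration required for complete inhibition of growth.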

Tested on: MDA-MB-468 breast
Assay: NCI tumour cell line growth inhibition, 48 h

SMILES	GI50	TGI
COc1ccccc1N(C(C)=O)C1=C(Cl)C(=O)c2ccccc2C1=O	487 nM	1.94 µM
C/C(=C\CCc1ccsc1)CC/C=C(\C)CCCN1CCN(CCO)CC1	1610 nM	4.1 µM
CCOC(=O)C1=C(C)NC(C)=C(C(=O)OCC)C1c1cc(Br)c(O)c(OC)c1	2880 nM	14.4 µM
NC(Cc1ccc(O)cc1)C(=O)N/N=C/c1ccc(N(CCCl)CCCl)cc1 (stereo not drawn)	958 nM	10.5 µM
O=C(N/N=C/c1ccncc1)c1ccc(C(F)(F)F)nc1Nc1cccc(C(F)(F)F)c1	1350 nM	4.39 µM
O=c1c(-c2ccc3c(c2)OCO3)coc2c(CO)c(O)ccc12	1850 nM	5.37 µM
CCN1CCN(CC(=O)Nc2nc3ccc(NCc4ccc(C)cc4)cc3s2)CC1	2030 nM	8.96 µM
COC(=O)c1c2c(c(C)[n+]([O-])c1C)C(=O)C=C(NCc1ccc(Br)cc1)C2=O	207 nM	0.816 µM
CC(=O)Nc1c(I)c(C(=O)O)c(I)c(N(C)C(C)=O)c1I	> 100000 nM	> 100 µM
C[C@@H](Oc1cc(-c2cnn(C3CC4(CNC4)C3)c2)cnc1N)c1c(Cl)ccc(F)c1Cl	2460 nM	9.35 µM
Nc1ncnc2c1nc(N)n2C1OC(CO)C(O)C1O (stereo not drawn)	220 nM	1.15 µM
Cc1cc(NS(=O)(=O)c2ccc(NC(=O)COc3ccc(-c4cc5ccccc5[nH]4)cc3)cc2)no1	1610 nM	3.52 µM
Cc1ccc2c(n1)C(=O)C(Cl)=C(Nc1ccc(N3CCN(C)CC3)cc1)C2=O	1510 nM	3.13 µM
Oc1[nH]c2ccc(Cl)cc2c1/C=c1/ccc2c(c1)N=C(c1ccc(C(F)(F)F)cc1)N=2	1940 nM	4.57 µM
COc1ccc(Oc2nc(Nc3ccc(N4CCOCC4)cc3)ncc2NC(=O)Nc2cc(OC)cc(OC)c2)cc1	3390 nM	11.7 µM
O=C(NC1CCNCC1)c1[nH]ncc1NC(=O)c1c(Cl)cccc1Cl	191 nM and 209 nM	0.434 µM and 0.525 µM
O=[N+]([O-])c1ccc(Oc2cccc(C(F)(F)F)c2)c([N+](=O)[O-])c1	1640 nM	3.1 µM
O=C(Nc1ccc2cc3ccc(NC(=O)N4CCCCCC4)cc3nc2c1)N1CCCCCC1	1560 nM	3.03 µM
COc1ccc(C2=NNC(c3cc(Cc4ccc(O)c(C5CC(c6ccc(OC)cc6)=NN5)c4)ccc3O)C2)cc1 (stereo not drawn)	2970 nM	22.9 µM
c1cc2ccc3cc2cc1CNCCOCCNCc1ccc2ccc(cc2c1)CNCCOCCNC3	> 100000 nM	> 100 µM
O=S1CCN(Cc2ccc(-c3ccc4ncnc(Nc5ccc(OCc6ccccc6)c(F)c5)c4c3)o2)CC1	130 nM	1.19 µM
O=C1c2ccccc2C(=O)c2c(NCCNCCO)ccc(NCCNCCO)c21	904 nM and 1300 nM and 1660 nM	2.45 µM and 2.92 µM and 3.84 µM

SMILES	GI50	TGI
Cc1ccc(-n2nnc3c(sc4ccccc43)c2=O)cc1	18500 nM	> 100 µM
Nc1cccc2c1CN(C1CCC(=O)NC1=O)C2=O (stereo not drawn)	> 100000 nM	> 100 µM
CS(=O)/C(C#N)=C\C=C\c1cccc(Cl)c1 (stereo not drawn)	1270 nM	4.28 µM
NS(=O)(=O)c1cccc(-c2cc3ccncc3cc2OCc2ccccc2)c1	4080 nM	16 µM
C=C1C(=O)O[C@H]2[C@H]1CC/C(COC(=O)c1cccc3ccccc13)=C\CC[C@@]1(C)O[C@@H]21	1350 nM	3.13 µM
CCCCCCCCn1ccc2cc(NC(=O)Cn3cc(CN4CCC(C)CC4)nn3)ccc21	1620 nM	3.29 µM
O=[N+]([O-])c1ccc(N/N=C/c2ccccc2O)nc1	3120 nM	29.9 µM
Cc1cc(Br)c2nsnc2c1[N+](=O)[O-]	1450 nM	3.24 µM
Cc1ccc(NC(C(=O)c2ccccc2)c2ccccc2)cc1 (stereo not drawn)	2180 nM	8.85 µM
O=C1c2cccc3cccc(c23)C(=O)N1CC#Cc1ccc2c3c(cccc13)C(=O)N(CCN1CCNCC1)C2=O	2190 nM	5.3 µM
Cc1ccc(C2NC(=S)N3C(c4ccc(C)cc4)NC(=S)N23)cc1 (stereo not drawn)	4620 nM	18.9 µM
CCc1ccc(Oc2nccc(-c3c(-c4ccc(F)cc4)ncn3C3CCNCC3)n2)cc1	3710 nM	7.59 µM
O=C1NC(=O)C(N2CCc3ccccc32)=C1c1ccc(Cl)cc1	> 25000 nM	> 25 µM
Cc1ccc(-c2c3c(N)nc(-c4ccncc4)nc3nc3c2c(C)nn3-c2ccccc2)cc1	> 37500 nM	> 37.5 µM
COc1cc2nc(Cl)nc(Nc3cccc(C4=Nc5c(N)nc(N)nc5NC(c5ccc(Cl)cc5)C4)c3)c2cc1OC (stereo not drawn)	1730 nM	3.49 µM
N#Cc1ccc(N2Cc3cc(Cl)ccc3OC3=C2C(=O)N(Cc2ccc(F)cc2)C3=O)cc1	595 nM	1.34 µM
COc1cc(OC)cc(C(=O)Nc2cccc(C#Cc3cccc4[nH]nc(N)c34)c2)c1	558 nM	3.92 µM
CCOC(=O)c1c(C(F)(F)F)n([O-])c2ccc(Cl)cc2[n+]1=O	1790 nM	3.92 µM
Cc1ccn2c(-c3csc(Nc4cccc(O)c4)n3)c(C)nc2c1	1770 nM	7.91 µM
O=c1[nH]cc(CO)c(=O)[nH]1	> 100000 nM	> 100 µM
Cc1cc(N2CCN(C)CC2)nc(N(CCNc2ccnc3cc(Cl)ccc23)Cc2ccco2)n1	2070 nM	6.1 µM
CCCCCCCCCCCCNC(=O)[C@H]1CSC(c2cc(Br)cs2)N1 (stereo partly drawn)	890 nM	1.74 µM
